Data reported in ChEMBL document CHEMBL5335794, “Discovery of novel multifunctional ligands targeting GABA transporters, butyrylcholinesterase, β-secretase, and amyloid β aggregation as potential treatment of Alzheimer's disease” (Eur J Med Chem, 2023).

Tests used:
Beta-secretase 1 [1] = biological target: T1, Beta-secretase 1 (Homo sapiens, UniProt P56817)
Cholinesterase = Cholinesterase (Equus caballus, UniProt P81908)
Description: Inhibition of equine serum BuChE using butyrylthiocholine iodide as substrate preincubated for 5 mins followed by substrate addition and measured after 5 mins by DTNB reagent based Ellman's method

[2] = biological target: Acetylcholinesterase (Electrophorus electricus) (UniProt O42275); test: Inhibition of electric eel AChE using acetylthiocholine iodide as substrate at 10 uM preincubated for 5 mins followed by substrate addition and measured after 5 mins by DTNB reagent based Ellman's method relative to control; settings: time 10.0 min
Acetylcholinesterase (Electrophorus electricus), sequence (O42275 24-633 limits assumed): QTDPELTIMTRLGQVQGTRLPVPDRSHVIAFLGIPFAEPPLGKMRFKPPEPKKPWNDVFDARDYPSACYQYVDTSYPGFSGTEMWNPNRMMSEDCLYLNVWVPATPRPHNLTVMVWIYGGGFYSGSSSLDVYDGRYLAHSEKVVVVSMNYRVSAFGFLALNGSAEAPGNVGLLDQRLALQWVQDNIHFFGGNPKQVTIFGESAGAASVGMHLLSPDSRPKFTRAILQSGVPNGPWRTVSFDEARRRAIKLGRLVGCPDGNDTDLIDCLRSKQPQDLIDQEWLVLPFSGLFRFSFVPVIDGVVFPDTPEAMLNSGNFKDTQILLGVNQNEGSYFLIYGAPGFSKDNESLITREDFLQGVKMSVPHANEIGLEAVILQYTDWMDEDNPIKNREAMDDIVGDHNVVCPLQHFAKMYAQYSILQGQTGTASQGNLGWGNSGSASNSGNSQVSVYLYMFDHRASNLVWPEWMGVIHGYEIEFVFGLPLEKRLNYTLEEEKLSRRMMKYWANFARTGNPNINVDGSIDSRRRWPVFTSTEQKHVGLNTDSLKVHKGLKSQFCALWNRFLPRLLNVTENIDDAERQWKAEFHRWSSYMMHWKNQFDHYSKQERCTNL

[3] = biological target: Amyloid-beta precursor protein (Homo sapiens) (UniProt P05067); test: Inhibition of amyloid beta40 (unknown origin) aggregation at 10 uM measured every 5 mins by ThT fluorescence based assay relative to control
Amyloid-beta precursor protein (Homo sapiens), sequence (P05067 whole entry): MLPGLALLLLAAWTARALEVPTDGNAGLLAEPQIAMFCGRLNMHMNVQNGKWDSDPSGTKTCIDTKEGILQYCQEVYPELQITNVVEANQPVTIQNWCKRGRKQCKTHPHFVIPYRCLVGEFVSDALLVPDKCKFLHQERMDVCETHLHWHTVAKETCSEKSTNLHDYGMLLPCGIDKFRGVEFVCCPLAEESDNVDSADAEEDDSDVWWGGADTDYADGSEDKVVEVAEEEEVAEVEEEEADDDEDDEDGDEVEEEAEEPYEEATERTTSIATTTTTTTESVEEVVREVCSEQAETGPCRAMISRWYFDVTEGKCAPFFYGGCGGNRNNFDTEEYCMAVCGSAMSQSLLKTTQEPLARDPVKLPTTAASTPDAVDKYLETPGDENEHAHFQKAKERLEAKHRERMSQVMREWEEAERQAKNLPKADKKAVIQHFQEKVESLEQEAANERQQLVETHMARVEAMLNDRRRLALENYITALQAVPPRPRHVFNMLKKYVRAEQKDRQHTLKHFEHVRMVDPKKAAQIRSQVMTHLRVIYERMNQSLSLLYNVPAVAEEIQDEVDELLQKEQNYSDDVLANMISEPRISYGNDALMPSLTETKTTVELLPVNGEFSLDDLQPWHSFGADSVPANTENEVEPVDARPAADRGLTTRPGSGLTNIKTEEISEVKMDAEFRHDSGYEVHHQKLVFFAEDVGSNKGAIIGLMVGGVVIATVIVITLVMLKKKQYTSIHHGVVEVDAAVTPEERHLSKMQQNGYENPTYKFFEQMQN

Beta-secretase 1 [4] = biological target: T1, Beta-secretase 1; settings: dose 50.0 µM, time 60.0 min
[5] = biological target: Amyloid-beta precursor protein (Homo sapiens) (UniProt P05067); test: Inhibition of amyloid beta42 (unknown origin) aggregation expressed in Escherichia coli BL21 (DE3) at 10 uM measured every 5 mins by ThT fluorescence based assay relative to control
[6] = biological target: Sodium- and chloride-dependent GABA transporter 1 (Mus musculus) (UniProt P31648); test: Inhibition of NO 711 marker binding to mouse GAT1 assessed as residual activity at 100 uM by LC-ESI-MS/MS based competitive MS binding assay relative to control
[7] = Inhibition of mouse GAT3 transfected in HEK293 cells assessed as reduction in [3H]-GABA uptake preincubated for 25 mins followed by [3H]-GABA addition and measured after 4 mins by liquid scintillation counting analysis; format: cell-based; settings: HEK293; read-out: pIC50 (converted)
GABA transporter 4 = biological target: T2, GABA transporter 4 (Mus musculus, UniProt P31650); test: Inhibition of mouse GAT4 transfected in HEK293 cells assessed as reduction in [3H]-GABA uptake preincubated for 25 mins followed by [3H]-GABA addition and measured after 4 mins by liquid scintillation counting analysis; format: cell-based; settings: read-out: pIC50 (converted)
T2 sequence (P31650 whole entry): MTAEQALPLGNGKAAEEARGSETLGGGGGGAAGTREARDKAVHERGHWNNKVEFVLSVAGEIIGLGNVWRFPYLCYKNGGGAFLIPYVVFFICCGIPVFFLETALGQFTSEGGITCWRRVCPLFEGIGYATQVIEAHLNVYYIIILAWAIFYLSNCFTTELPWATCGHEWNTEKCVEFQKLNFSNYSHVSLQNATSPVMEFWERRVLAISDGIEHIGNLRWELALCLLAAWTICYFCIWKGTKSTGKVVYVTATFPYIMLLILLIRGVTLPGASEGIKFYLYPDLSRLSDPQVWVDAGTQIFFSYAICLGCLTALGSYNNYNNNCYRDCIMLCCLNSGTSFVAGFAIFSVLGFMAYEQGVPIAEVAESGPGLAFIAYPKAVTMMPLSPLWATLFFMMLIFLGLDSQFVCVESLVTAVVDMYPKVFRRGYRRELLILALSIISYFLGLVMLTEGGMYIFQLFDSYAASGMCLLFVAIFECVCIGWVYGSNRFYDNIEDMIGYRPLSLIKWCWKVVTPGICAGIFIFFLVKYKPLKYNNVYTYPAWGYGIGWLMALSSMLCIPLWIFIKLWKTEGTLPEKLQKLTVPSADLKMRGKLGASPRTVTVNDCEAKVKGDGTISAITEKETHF

[8] = biological target: Sodium- and chloride-dependent GABA transporter 1 (Mus musculus, UniProt P31648); test: Inhibition of mouse GAT1 transfected in HEK293 cells assessed as reduction in [3H]-GABA uptake preincubated for 25 mins followed by [3H]-GABA addition and measured after 4 mins by liquid scintillation counting analysis; format: cell-based; settings: read-out: pIC50 (converted)
GABA transporter 2 = biological target: T3, GABA transporter 2 (Mus musculus, UniProt P31651); test: Inhibition of mouse GAT2 transfected in HEK293 cells assessed as reduction in [3H]-GABA uptake preincubated for 25 mins followed by [3H]-GABA addition and measured after 10 mins by liquid scintillation counting analysis; format: cell-based; settings: read-out: pIC50 (converted)
T3 sequence (P31651 whole entry): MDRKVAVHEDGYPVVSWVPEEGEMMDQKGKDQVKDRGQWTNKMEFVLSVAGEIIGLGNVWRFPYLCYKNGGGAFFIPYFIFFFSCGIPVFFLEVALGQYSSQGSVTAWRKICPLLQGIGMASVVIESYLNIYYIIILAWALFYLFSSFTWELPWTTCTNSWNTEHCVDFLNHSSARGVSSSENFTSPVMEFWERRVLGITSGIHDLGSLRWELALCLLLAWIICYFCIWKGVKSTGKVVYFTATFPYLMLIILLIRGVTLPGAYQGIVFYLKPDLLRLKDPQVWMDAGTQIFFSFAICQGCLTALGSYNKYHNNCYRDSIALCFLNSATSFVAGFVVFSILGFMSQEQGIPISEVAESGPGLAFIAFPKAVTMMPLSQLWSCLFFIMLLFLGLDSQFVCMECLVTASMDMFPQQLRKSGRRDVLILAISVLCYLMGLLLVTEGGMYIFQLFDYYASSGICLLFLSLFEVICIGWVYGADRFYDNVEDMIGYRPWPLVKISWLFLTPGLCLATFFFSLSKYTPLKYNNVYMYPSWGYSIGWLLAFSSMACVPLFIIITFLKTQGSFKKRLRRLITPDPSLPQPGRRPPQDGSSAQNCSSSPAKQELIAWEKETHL

[9] = biological target: Cholinesterase (Equus caballus) (UniProt P81908); test: Inhibition of equine serum BuChE using butyrylthiocholine iodide as substrate at 10 uM preincubated for 5 mins followed by substrate addition and measured after 5 mins by DTNB reagent based Ellman's method relative to control; settings: time 10.0 min
Cholinesterase (Equus caballus), sequence (P81908 whole entry): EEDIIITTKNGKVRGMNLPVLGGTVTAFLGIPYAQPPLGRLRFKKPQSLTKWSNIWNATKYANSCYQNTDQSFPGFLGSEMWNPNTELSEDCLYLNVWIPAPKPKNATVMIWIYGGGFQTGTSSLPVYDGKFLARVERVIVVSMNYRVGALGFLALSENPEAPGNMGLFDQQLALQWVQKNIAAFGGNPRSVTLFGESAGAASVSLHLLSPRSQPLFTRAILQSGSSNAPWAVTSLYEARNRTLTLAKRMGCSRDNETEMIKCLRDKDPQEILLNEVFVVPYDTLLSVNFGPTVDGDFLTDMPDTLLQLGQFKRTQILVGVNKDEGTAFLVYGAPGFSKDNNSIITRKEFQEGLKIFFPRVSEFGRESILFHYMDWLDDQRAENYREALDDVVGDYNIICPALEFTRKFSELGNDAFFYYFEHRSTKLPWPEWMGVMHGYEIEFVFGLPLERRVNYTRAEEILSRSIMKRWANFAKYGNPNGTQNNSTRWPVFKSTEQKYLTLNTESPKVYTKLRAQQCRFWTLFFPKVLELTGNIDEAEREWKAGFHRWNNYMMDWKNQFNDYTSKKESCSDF

T1 sequence (P56817 whole entry): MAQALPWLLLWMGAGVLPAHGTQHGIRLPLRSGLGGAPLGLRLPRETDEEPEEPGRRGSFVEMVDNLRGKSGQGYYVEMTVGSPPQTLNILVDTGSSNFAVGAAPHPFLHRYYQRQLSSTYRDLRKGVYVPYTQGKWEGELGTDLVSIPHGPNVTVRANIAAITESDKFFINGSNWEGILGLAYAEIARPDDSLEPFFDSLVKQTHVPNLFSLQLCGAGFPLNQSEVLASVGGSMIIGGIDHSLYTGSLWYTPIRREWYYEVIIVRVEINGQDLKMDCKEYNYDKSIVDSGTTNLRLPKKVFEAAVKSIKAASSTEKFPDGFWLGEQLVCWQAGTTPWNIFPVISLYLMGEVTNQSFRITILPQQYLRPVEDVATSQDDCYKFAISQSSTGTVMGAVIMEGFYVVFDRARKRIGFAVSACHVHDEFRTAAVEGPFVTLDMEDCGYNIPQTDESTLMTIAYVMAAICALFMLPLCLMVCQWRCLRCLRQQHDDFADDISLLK
Cholinesterase, sequence (P81908 whole entry): as the sequence (P81908 whole entry) above

For `CN(CCC=C1c2ccccc2CCc2ccccc21)C(CCN)C(=O)NCc1ccccc1Cl` (stereo not drawn), the IC50 (Beta-secretase 1 [1]) was 5.13 µM, the IC50 (Cholinesterase) was 1.23 µM and the inhibition [2] was 28%.

Compound `CN(CCC=C1c2ccccc2-c2ccccc21)C(CCO)C(=O)NCc1ccc(F)cc1` (stereo not drawn) has an inhibition [3] of 77.1%, an IC50 (Cholinesterase) of 0.978 µM and an inhibition (Beta-secretase 1 [4]) of 66%. For the same compound, the inhibition [2] was < 10% and the inhibition [5] was 21.5%.

In the case of `CC(=O)NCCC(C(=O)NCc1ccc(C)cc1)N(C)CCOCCN1c2ccccc2Sc2ccccc21` (stereo not drawn), the Activity [6] is reported as 89%, the IC50 (Cholinesterase) is reported as 3.2 µM and the inhibition (Beta-secretase 1 [4]) is reported as 52%. The IC50 [7] was 7.94 µM, the inhibition [2] was < 10% and the IC50 (GABA transporter 4) was 12.6 µM. It also gave an IC50 [8] of 22.9 µM and an IC50 (GABA transporter 2) of 14.1 µM.

`CC(=O)NCCC(C(=O)NCc1ccccc1Cl)N(C)CCOCCN1c2ccccc2Sc2ccccc21` (stereo not drawn) gave an Activity [6] of 86%, an IC50 (Cholinesterase) of 2.79 µM and an inhibition (Beta-secretase 1 [4]) of 35%. The IC50 [7] was 10.2 µM, the inhibition [2] was < 10% and the IC50 (GABA transporter 4) was 10.2 µM. It also gave an IC50 [8] of 14.1 µM and an IC50 (GABA transporter 2) of 20.4 µM.

In the case of `CN(CCC=C1c2ccccc2-c2ccccc21)C(CCO)C(=O)NCc1ccccc1` (stereo not drawn), the inhibition [3] is reported as 58.7%, the IC50 (Beta-secretase 1 [1]) is reported as 19.5 µM and the IC50 (Cholinesterase) is reported as 0.978 µM. The inhibition [2] was < 10% and the inhibition [5] was 15.8%.

With `CC(=O)NCCC(C(=O)NCc1ccc(F)cc1)N(C)CCOCCN1c2ccccc2Sc2ccccc21` (stereo not drawn) the Activity [6] was 85%, the IC50 (Cholinesterase) was 8.25 µM and the inhibition (Beta-secretase 1 [4]) was 45%. For the same compound, the IC50 [7] was 10.7 µM, the inhibition [2] was < 10% and the IC50 (GABA transporter 4) was 18.2 µM. For the same compound, the IC50 [8] was 22.9 µM and the IC50 (GABA transporter 2) was 24.5 µM.

Work on `CN(CCOCCn1c2ccccc2c2ccccc21)C(CCO)C(=O)NCc1ccc(F)cc1` (stereo not drawn) yielded an Activity [6] of 112%, an IC50 (Cholinesterase) of 4.83 µM and an inhibition (Beta-secretase 1 [4]) of 65%. The IC50 [7] was 16.2 µM, the inhibition [2] was < 10% and the IC50 (GABA transporter 4) was 18.2 µM. For the same compound, the IC50 [8] was 37.2 µM and the IC50 (GABA transporter 2) was 13.8 µM.

`CN(CCOCCn1c2ccccc2c2ccccc21)C(CCO)C(=O)NCc1ccccc1` (stereo not drawn) showed an Activity [6] of 92%, an IC50 (Cholinesterase) of 4.16 µM and an inhibition (Beta-secretase 1 [4]) of 64%. The IC50 [7] was 14.8 µM, the inhibition [2] was < 10% and the IC50 (GABA transporter 4) was 17.4 µM. For the same compound, the IC50 [8] was 38 µM and the IC50 (GABA transporter 2) was 26.9 µM.

Compound `CN(CCC=C1c2ccccc2CCc2ccccc21)C(CCN)C(=O)NCc1ccccc1` (stereo not drawn) has an IC50 (Beta-secretase 1 [1]) of 6.68 µM, an IC50 (Cholinesterase) of 1.47 µM and an inhibition [2] of 15%.

Compound `CC(=O)NCCC(C(=O)NCc1ccc(Cl)cc1)N(C)CCOCCN1c2ccccc2Sc2ccccc21` (stereo not drawn) has an Activity [6] of 91%, an IC50 (Cholinesterase) of 4.7 µM and an inhibition (Beta-secretase 1 [4]) of 41%. For the same compound, the IC50 [7] was 8.91 µM, the inhibition [2] was < 10% and the IC50 (GABA transporter 4) was 12.3 µM. It also gave an IC50 [8] of 19.1 µM and an IC50 (GABA transporter 2) of 9.55 µM.

For `CN(CC/C=C/c1ccccc1-c1ccccc1)C(CO)C(=O)NCc1ccccc1` (stereo not drawn), the Activity [6] was 67%, the IC50 (Cholinesterase) was 0.683 µM and the inhibition (Beta-secretase 1 [4]) was 42%. The IC50 [7] was 17 µM, the inhibition [2] was < 10% and the IC50 (GABA transporter 4) was 17.4 µM. For the same compound, the IC50 [8] was 25.1 µM and the IC50 (GABA transporter 2) was 20 µM.

With `CN(CCC=C1c2ccccc2-c2ccccc21)C(CCO)C(=O)NCc1ccc(Cl)cc1` (stereo not drawn) the IC50 (Beta-secretase 1 [1]) was 17.3 µM, the inhibition [2] was < 10% and the inhibition [9] was 46%.

In the case of `CN(CCC=C1c2ccccc2CCc2ccccc21)C(CCN)C(=O)NCc1ccc(F)cc1` (stereo not drawn), the IC50 (Beta-secretase 1 [1]) is reported as 4.88 µM, the IC50 (Cholinesterase) is reported as 1.21 µM and the inhibition [2] is reported as 21%.
